According to patent US20250195475A1, “CDK2 INHIBITOR AND PREPARATION METHOD AND USE THEREOF” (INVENTISBIO CO., LTD., priority 2022, published 2025):

Target: CDK2/CyclinE1 (Homo sapiens (Human), UniProt P24941)
Test: CDK2 kinase assay (TR-FRET)
Assay type: biochemical
Conditions: CDK2/CyclinE1 0.5 nM, ATP 50 μM
Protocol: The purpose of these assays is to evaluate the inhibition of small molecule inhibitors by using TR-FRET assay.
Compound Preparation. Dissslove the compounds into DMSO solution to make 10 mM DMSO stock. Serially dilute the stock solution from highest concentration down to lowest in DMSO to make the compound stock plate (100× stock plates). To make 5× compound intermediate plate, add 38 μL of assay buffer (50 mM HEPES, pH 7.5, 0.05 mg/mL BSA, 10 mM MgCl2, 1 mM EGTA, 0.01% Tween-20, 2 mM DTT) into each well of the V-bottom plate; then transfer 2 μL of the stock compound solution of each concentration from the compound stock plate (100× stock), and mix well.
Enzyme reaction. Transfer 2 μL compound from 5× intermediate plate into assay plate, then add 4 μL/well 2.5× Enzyme mix to assay plate, incubation for 10 min at room temperature. For positive control wells, add 4 μL/well assay buffer instead of Enzyme mix. Then add 4 μL/well 2.5× Substrate mix to assay plate, and incubation at 25° C. for 30 min at room temperature. After reaction, 10 μL 2× Detection mix (final 15 mM EDTA, 1× LANCE Detection Buffer, 0.5 nM Detection antibody) was added and incubated for 1 h prior to detection with excitation and emission at 320 and 665 nm (Tecan Spark® TR-FRET mode Tecan).
Inhibition rate (IR) of the tested compounds was determined by the following formula: IR (%)=(average High control−compound well)/(average High control−average Low control)*100%. Fit the compound IC50 from non-linear regression equation: Y=Bottom+(Top−Bottom)/(1+10^((Log IC50−X)*HillSlope)). X: Log of cpd concentration; Y: Inhibition rate (TR); Top and Bottom: Plateaus in same units as Y, log IC50: same log units as X; HillSlope: Slope factor or Hill slope.

Row | SMILES | IC50 [nM]
1 | CC(C)NC(=O)O[C@@H]1CC[C@H](c2cc(NC(=O)C34CC(C(F)F)(C3)C4)n[nH]2)C1 [Compound 106] | 1.8
2 | CC(C)NC(=O)O[C@H]1CO[C@@H](c2cc(NC(=O)c3cc(C(F)F)nn3C)n[nH]2)C1 [Compound 111] | 4.1
3 | CC(C)NC(=O)O[C@@H]1CO[C@H](c2cc(NC(=O)c3cc(C(F)F)nn3C)n[nH]2)C1 [Compound 112] | 13.4
4 | CC(C)NC(=O)O[C@@H]1CC[C@H](c2cc(NC(=O)C3[C@H]4COC[C@@H]34)n[nH]2)C1 (stereo partly drawn) [Compound 115] | 54.5
5 | CC(C)NC(=O)O[C@@H]1CO[C@H](c2cc(NC(=O)Cc3cc(F)cc(C#N)c3)n[nH]2)C1 [Compound 116] | 4.5
6 | CC1(NC(=O)O[C@@H]2CC[C@H](c3cc(NC(=O)[C@@H]4CCN(S(C)(=O)=O)C4)n[nH]3)C2)CCC1 [Compound 119] | 0.4
7 | COC[C@@H]1CCN(C(=O)Nc2cc([C@H]3CC[C@@H](OC(=O)NC(C)C)C3)[nH]n2)C1 [Compound 120] | 116
8 | CC(C)NC(=O)O[C@H]1CO[C@@H](c2cc(NC(=O)Cc3ccc(OCCN4CCCC4)cc3)n[nH]2)C1 [Compound 121] | 3.2
9 | COC[C@H]1CCN(C(=O)Nc2cc([C@H]3CC[C@@H](OC(=O)NC(C)C)C3)[nH]n2)C1 [Compound 123] | 265
10 | CS(=O)(=O)N1CC[C@@H](C(=O)Nc2cc([C@H]3CC[C@@H](OC(=O)NC4(C(F)F)CC4)C3)[nH]n2)C1 [Compound 124] | 1.2
11 | COC[C@H]1C[C@@H]1C(=O)Nc1cc([C@H]2CC[C@@H](OC(=O)NC34CC(F)(C3)C4)C2)[nH]n1 [Compound 125] | 1.3
12 | CC(C)NC(=O)O[C@@H]1CC[C@H](c2cc(NC(=O)[C@@H]3C[C@@H](C)N(S(C)(=O)=O)C3)n[nH]2)C1 [Compound 127] | 3.6
13 | CC(C)NC(=O)O[C@@H]1COC(c2cc(NC(=O)Cc3ccc(OCCN4CCCC4)cc3)n[nH]2)C1 (stereo partly drawn) [Compound 128] | 14.6
14 | Cc1occc1C(=O)Nc1cc([C@H]2C[C@@H](OC(=O)NC(C)C)CO2)[nH]n1 [Compound 129] | 11.8
15 | CC(C)NC(=O)O[C@@H]1CO[C@H](c2cc(NC(=O)[C@@H]3CCN(S(=O)(=O)C4CC4)C3)n[nH]2)C1 [Compound 132] | 7.2
16 | Cc1occc1C(=O)Nc1cc([C@@H]2C[C@H](OC(=O)NC(C)C)CO2)[nH]n1 [Compound 133] | 50.1
17 | CC(C)NC(=O)O[C@H]1CO[C@@H](c2cc(NC(=O)Cc3ccccc3S(C)(=O)=O)n[nH]2)C1 [Compound 134] | 2.2
18 | CC(C)NC(=O)O[C@@H]1CO[C@H](c2cc(NC(=O)Cc3ccccc3S(C)(=O)=O)n[nH]2)C1 [Compound 135] | 13.5

Row | SMILES | IC50 [nM]
19 | CC(C)NC(=O)O[C@@H]1CC[C@H](C2=CC(NC(=O)[C@H]3C[C@@H]3[C@@H](C)O)=NC2)C1 [Compound 137] | 5.3
20 | Cn1nccc1C(=O)Nc1cc([C@H]2C[C@@H](OC(=O)NC3(C)CCC3)CO2)[nH]n1 [Compound 138] | 1
21 | CC1(NC(=O)O[C@@H]2CC[C@H](c3cc(NC(=O)[C@@H]4CCN(S(=O)(=O)C5CC5)C4)n[nH]3)C2)CCC1 [Compound 139] | 0.7
22 | CC1(NC(=O)O[C@@H]2CC[C@H](c3cc(NC(=O)[C@@H]4CCN(S(=O)(=O)C5CC5)C4)n[nH]3)C2)CC1 [Compound 140] | 0.7
23 | C#C[C@H]1C[C@@H]1C(=O)Nc1cc([C@H]2CC[C@@H](OC(=O)NC3(C)CC3)C2)[nH]n1 [Compound 141] | 0.5
24 | COC[C@H]1C[C@@H]1C(=O)Nc1cc([C@H]2CC[C@@H](OC(=O)NC34CC(C(F)F)(C3)C4)C2)[nH]n1 [Compound 142] | 1.6
25 | C#C[C@H]1C[C@@H]1C(=O)Nc1cc([C@@H]2CC[C@H](OC(=O)NC(C)C)C2)[nH]n1 [Compound 145] | 0.9
26 | CC(C)NC(=O)O[C@@H]1CC[C@H](c2cc(NC(=O)C3CC3OCC(F)F)n[nH]2)C1 (stereo partly drawn) [Compound 147] | 4.8
27 | C#C[C@H]1C[C@@H]1C(=O)Nc1cc([C@H]2C[C@@H](OC(=O)N[C@@H](C)CC)CO2)[nH]n1 [Compound 155] | 4.5
28 | C#C[C@H]1C[C@@H]1C(=O)Nc1cc([C@@H]2C[C@H](OC(=O)N[C@@H](C)CC)CO2)[nH]n1 [Compound 156] | 6
29 | C#C[C@H]1C[C@@H]1C(=O)Nc1cc([C@@H]2C[C@H](OC(=O)NC3(C)CC3)CO2)[nH]n1 [Compound 157] | 2.9
30 | C#C[C@H]1C[C@@H]1C(=O)Nc1cc([C@H]2C[C@@H](OC(=O)NC3(C)CCC3)CO2)[nH]n1 [Compound 158] | 1.1
31 | Cn1nccc1C(=O)Nc1cc([C@H]2C[C@@H](OC(=O)NC34CC(F)(C3)C4)CO2)[nH]n1 [Compound 159] | 1.6
32 | Cn1nccc1C(=O)Nc1cc([C@@H]2C[C@H](OC(=O)NC34CC(F)(C3)C4)CO2)[nH]n1 [Compound 160] | 5.3
33 | CC(C)NC(=O)O[C@@H]1CC[C@H](c2cc(NC(=O)[C@H]3C[C@@H]3C#CC(F)F)n[nH]2)C1 [Compound 161] | 1
34 | Cc1c(C2CC2C(=O)Nc2cc([C@H]3CC[C@@H](OC(=O)NC(C)C)C3)[nH]n2)cnn1C (stereo partly drawn) [Compound 162] | 109
35 | C#C[C@H]1C[C@@H]1C(=O)Nc1cc([C@H]2C[C@@H](OC(=O)NC(C)C)CO2)[nH]n1 [Compound 164] | 1.5

Next, values leading:

Row | IC50 [nM] | SMILES
36 | 4.7 | C#C[C@H]1C[C@@H]1C(=O)Nc1cc([C@@H]2C[C@H](OC(=O)NC(C)C)CO2)[nH]n1 [Compound 165]
37 | 0.9 | C#C[C@H]1C[C@@H]1C(=O)Nc1cc([C@H]2C[C@@H](OC(=O)NC(C)(C)C)CO2)[nH]n1 [Compound 166]
38 | 1.4 | C#C[C@H]1C[C@@H]1C(=O)Nc1cc([C@@H]2C[C@H](OC(=O)NC(C)(C)C)CO2)[nH]n1 [Compound 167]
39 | 0.6 | C#C[C@H]1C[C@@H]1C(=O)Nc1cc([C@H]2C[C@@H](OC(=O)NC(C)(C)CC)CO2)[nH]n1 [Compound 168]
40 | 1.9 | C#C[C@H]1C[C@@H]1C(=O)Nc1cc([C@@H]2C[C@H](OC(=O)NC(C)(C)CC)CO2)[nH]n1 [Compound 169]
41 | 0.8 | C#C[C@H]1C[C@@H]1C(=O)Nc1cc([C@H]2C[C@@H](OC(=O)NC3(C)CC3)CO2)[nH]n1 [Compound 170]
42 | 1.3 | C#C[C@H]1C[C@@H]1C(=O)Nc1cc([C@@H]2C[C@H](OC(=O)NC3(C)CCC3)CO2)[nH]n1 [Compound 171]
43 | 1.2 | CC(C)NC(=O)O[C@@H]1CC[C@H](c2cc(NC(=O)C3CN(S(=O)(=O)C4CC4)CC3C)n[nH]2)C1 (stereo partly drawn) [Compound 172]
44 | 61.1 | CC(C)NC(=O)O[C@@H]1CC[C@H](c2cc(NC(=O)C3CC34CCOC4)n[nH]2)C1 (stereo partly drawn) [Compound 174]
45 | 174 | CC(C)NC(=O)O[C@@H]1CC[C@H](c2cc(NC(=O)C3CC34CCOC4)n[nH]2)C1 (stereo partly drawn) [Compound 175]
46 | 33 | CC(C)NC(=O)O[C@@H]1CC[C@H](c2cc(NC(=O)C3CC34CCOC4)n[nH]2)C1 (stereo partly drawn) [Compound 176]
47 | 1 | CC#C[C@H]1C[C@@H]1C(=O)Nc1cc([C@H]2CC[C@@H](OC(=O)NC(C)C)C2)[nH]n1 [Compound 177]
48 | 1.4 | CCC1(NC(=O)O[C@@H]2CO[C@H](c3cc(NC(=O)c4ccnn4C)n[nH]3)C2)CCC1 [Compound 178]
49 | 12.6 | CC(C)NC(=O)O[C@@H]1CC[C@H](c2cc(NC(=O)[C@@H]3C[C@@H](C(C)C)N(S(C)(=O)=O)C3)n[nH]2)C1 [Compound 179]
50 | 4 | C#C[C@H]1C[C@@H]1C(=O)Nc1cc([C@H]2C[C@@H](OC(=O)NC3(C)COC3)CO2)[nH]n1 [Compound 182]
51 | 0.5 | CCC1(NC(=O)O[C@H]2CO[C@@H](c3cc(NC(=O)c4ccnn4C)n[nH]3)C2)CCC1 [Compound 183]
52 | 0.5 | COC[C@H]1C[C@@H]1C(=O)Nc1cc([C@@H]2CC[C@H](OC(=O)NC3(C)CC3)C2)[nH]n1 [Compound 184]
53 | 0.6 | CCC(C)(C)NC(=O)O[C@H]1CO[C@@H](c2cc(NC(=O)c3ccnn3C)n[nH]2)C1 [Compound 190]
54 | 0.7 | C#C[C@H]1C[C@@H]1C(=O)Nc1cc([C@H]2CC[C@@H](OC(=O)NC34CC(F)(C3)C4)C2)[nH]n1 [Compound 194]
55 | 15.7 | C#C[C@H]1C[C@@H]1C(=O)Nc1cc([C@@H]2C[C@H](OC(=O)NC3(C)COC3)CO2)[nH]n1 [Compound 197]
56 | 6.8 | C#CC1(NC(=O)O[C@@H]2CO[C@H](c3cc(NC(=O)c4ccnn4C)n[nH]3)C2)CCC1 [Compound 198]
57 | 4.6 | COCc1cc(C(=O)Nc2cc([C@H]3CC[C@@H](OC(=O)N[C@H]4C[C@@]5(CCOC5)C4)C3)[nH]n2)n(C)n1 [Compound 201]
58 | 3.9 | COCc1cc(C(=O)Nc2cc([C@H]3CC[C@@H](OC(=O)N[C@H]4C[C@]5(CCOC5)C4)C3)[nH]n2)n(C)n1 [Compound 202]
59 | 0.9 | CCC1(NC(=O)O[C@H]2CO[C@@H](c3cc(NC(=O)c4ccnn4C)n[nH]3)C2)CC1 [Compound 203]
60 | 1 | CCC1(NC(=O)O[C@@H]2CO[C@H](c3cc(NC(=O)c4ccnn4C)n[nH]3)C2)CC1 [Compound 204]
